{
  "source": "patent US11492644B2",
  "about": "“Genetically induced nephron progenitors” (MURDOCH CHILDRENS RESEARCH INSTITUTE, priority 2017, dated 2022)",
  "tested_on": "Cited1",
  "test": "In situ reprogramming by renal pelvis hydrodynamic injection",
  "assay_type": "in vivo, mouse",
  "conditions": "Cited1-CreERT2 BAC transgenic mice, 72 h post-injection",
  "procedure": "Renal pelvis hydrodynamic injection was performed as previously described (Woodard et al Sci Rep 2017, Woodard et al J. Vis. Exp. 2017) on 15 week-old Cited1-CreER^T2 BAC transgenic mice (Boyle et al Dev. Biol. 2008). Mice were assayed for presence of the GFP transgene at weaning (Transnetyx, Cordova, Tenn.). A solution of 50 ug of pT-mSES in 100 uL of buffer QR (Minis Bio, Madison, Wis.) was injected quickly into the renal pelvis of mice anesthetized with ketamine/xylazine. Mice were treated every 8-12 h with buprenorphine for pain management for 48 h and sacrificed at 72 h post-injection.\nThere were eGFP-positive cells with a similar morphology present in both QR-injected and pT-mSES-injected transgenic animals (FIG. 16, panels a and b). However, only in the pT-mSES-injected transgenic animals were there cells appearing to be derived from tubule-like structures that were eGFP-positive (FIG. 16c). In contrast, in wild-type, non-transgenic mice receiving either QR or pT-mSES, no positive eGFP cells could be found. Therefore, cellular reprogramming to an induced nephron progenitor state may be possible in vivo following gene delivery of Snai2, Six1 and Eya1.",
  "data": [
    {"substance": "pT-mSES: piggyBac transposon plasmid (SEQ ID NO:12) expressing mouse Six1, Snai2 and Eya1 from the elongation factor 1 alpha promoter", "values": [
      {"measurement": "eGFP expression from the Cited1 promoter", "value": "induced eGFP expression indicative of Cited1 positivity"}
    ]}
  ]
}
